Test results from patent publication US20250170159A1, “COMPOSITIONS COMPRISING STING AGONISTS AND METHODS OF USE FOR TREATING GLIOMA” (ImmunoGenesis, Inc., priority 2023, published 2025).

Experiments:
[1] = system: spontaneous unresected gliomas; conditions: dogs; previously shown (ref 12); cited from earlier work
QPP8 glioma cells = conditions: administered on days 14, 21, and 28
Text: The total amount of immune cells was quantified based on all live CD45+ cells and specifically on CD11b+Ly6C+ expression of mono-MDSCs. […] Each dot represents an analyzed tumor or LN. FIG. 16E: Expression of immunosuppressive markers CD206 and CD163 spanning myeloid populations and as a function of treatment. FIG. 16F: Myeloid PD-L1 expression on various immune lineages in tumors and LNs.

[2] = system: spontaneous unresected gliomas; assay: Intratumoral delivery of STING agonist in spontaneous canine high-grade glioma; format: in vivo, dog
Experimental: A single ˜5 mm-diameter burr hole craniectomy was made at entry point determined by Brainsight Neuronavigation System.
A 100 uL-Hamilton syringe secured in a calibrated holder on an x-y stage containing 50 μL of Compound C at varying concentrations
Contrast enhancing target was selected using the MRI reconstruction.
Compound of Formula C was injected at a rate of 2 uL/minute.
Compound of Formula C was administered via repeated intratumoral injections up to 20 μg in 50 uL in a large animals (canines) with spontaneous unresected gliomas.

human U87 glioma cells = assay: Humanized mice implanted with human U87 glioma cells; format: in vivo, mouse
Text: . (FIG. 15A) Multiplexed sequential immunofluorescence images of the STING expression at baseline in humanized mouse brain implanted with U87 glioma cells and collected at endpoint. The right image represents a high magnification of the white box drawn in the left image. The white arrows highlight CD31+STING+ vessels and green arrows highlight the CD163+STING+ macrophages. […] Scale bars: 500 μm (left panel) and 50 μm (right panel). A higher magnification image of a CD163+STING+ cell is represented at the upper right quadrant of the right image (scale bar: 20 μm). […] MFI, mean fluorescence intensity; h, human; TAM, tumor-associated macrophage; Mono, monocyte; PMN, […]; MDSC, myeloid-derived suppressor cell. […] The markers were assessed via Cytek Aurora flow cytometer and the CD45+CD11b+ population was analyzed for the indicated markers. *P<0.05; ** P<0.01; *** P<0.001; **** P<0.0001 by 2-tailed Student's t test (FIGS. 15E-H).
STING expression on human and murine glioma cells was analyzed (FIG. 15A). […] To evaluate whether this treatment induces an inflammatory response directed against the CNS, the mice were evaluated daily. […]

CT-2A glioma cells = conditions: FIG. 18B right panel; control MS 28 days
Experimental: As such, we evaluated synergy in the CT-2A and QPP8v immunocompetent murine glioma models. […] To visualize TME features that would be reflective of response, the CT-2A model was treated on day 7 and during the therapeutic window, the activation of the STING pathway (i.e., p-IRF3) and the immune infiltration were analyzed with multiplexed SeqIF imaging.

GL261 glioma cells = conditions: FIG. 18B left panel; control MS 25 days
Text: FIG. 18A: Schema of the treatment of immunocompetent mice that underwent i.e. implantation of either GL261 or CT-2A glioma cells. […] FIG. 18C: Schema of the treatment of immunocompetent mice that underwent i.e. implantation of either CT-2A or QPP8v (subclone) glioma cells. […] FIG. 18E: Multiplexed sequential immunofluorescence images of untreated CT-2A gliomas (n=3). […] White boxes outline the portion shown at higher magnification in the right column of images. Scale bars: 500 μm (left 3 columns) and 50 μm (right column).
PD-1: PD-L1 = target: T1, PD-1: PD-L1 (Homo sapiens, UniProt Q9NZQ7); assay: PD-1 pathway blockade reporter cell assay, PD-L1+ cells; format: cell-based; conditions: FIG. 9
T1 construct: expressed in transfected cells; host or cells: PD-1 expressing effector cells and PD-L1+ artificial antigen presenting cells
Experimental: (§1) A dose range of 50.000-0.015 nM was tested against PD-L1+ cells (FIG. 9A), PD-L2+ cells (FIG. 9B), and a 50:50 mixture of PD-L1+ and PD-L2+ cells (FIG. 9C). Nonlinear regression was used to generate best-fit curves in GraphPad Prism.
(§2) The ability of Ab-27907 to interrupt the PD-1 pathway through binding of the ligands PD-L1 and PD-L2 was tested in a reporter cell system. In this assay, PD-1 expressing effector cells are incubated with artificial antigen presenting cells expressing PD-L1 or PD-L2 with a T cell receptor (TCR). Without any antibodies, luminescence activity is low, as PD-1 binds its ligands, preventing TCR engagement and production of luciferase.

[3] = system: U2940 human B-cell lymphoma, 8505C human thyroid carcinoma, and B16F10-PDL2 murine melanoma tumor cell lines; assay: ADCP reporter cell assay; format: cell-based; conditions: FIG. 10
Experimental: (§3) A dose range was tested in ADCC (FIGS. 10A, 10C, and 10E) and ADCP FIGS. 10B, 10C, and 10F) assays against U2940 human B-cell lymphoma (FIGS. 10A and 10B), 8505C human thyroid carcinoma (FIGS. 10C and 10D), and B16F10-PDL2 murine melanoma (FIGS. 10E, and 10F) tumor cell lines.

B16F10-PDL2 tumor = assay: B16F10-PDL2 melanoma tumor-bearing mice; conditions: monotherapy, first 2 weeks
Text: Left: Mean±SEM tumor volume (mm^3) is plotted on the y-axis against days post tumor inoculation on the x-axis. Right: Kaplan Meier plots of survival.

[4] = system: U2940 human B-cell lymphoma, 8505C human thyroid carcinoma, and B16F10-PDL2 murine melanoma tumor cell lines; assay: ADCC reporter cell assay; format: cell-based; conditions: FIG. 10
Experimental: as §3

TS/A tumor = assay: TS/A mouse model of mammary carcinoma; conditions: versus control group
PD-1: PD-L2 = target: T2, PD-1: PD-L2 (Homo sapiens, UniProt Q9BQ51); assay: PD-1 pathway blockade reporter cell assay, PD-L2+ cells; format: cell-based; conditions: FIG. 9
T2 construct: expressed in transfected cells; host or cells: PD-1 expressing effector cells and PD-L2+ artificial antigen presenting cells
T2 sequence (Q9BQ51 20-273): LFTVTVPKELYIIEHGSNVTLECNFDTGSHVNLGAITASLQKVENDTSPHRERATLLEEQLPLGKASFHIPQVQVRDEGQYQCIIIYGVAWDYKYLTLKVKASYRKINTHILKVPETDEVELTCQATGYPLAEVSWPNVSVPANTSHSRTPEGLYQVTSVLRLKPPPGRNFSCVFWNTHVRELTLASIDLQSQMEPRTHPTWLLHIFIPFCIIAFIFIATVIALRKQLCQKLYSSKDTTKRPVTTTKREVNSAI
Experimental: as §1, §2

T1 sequence (Q9NZQ7 19-290): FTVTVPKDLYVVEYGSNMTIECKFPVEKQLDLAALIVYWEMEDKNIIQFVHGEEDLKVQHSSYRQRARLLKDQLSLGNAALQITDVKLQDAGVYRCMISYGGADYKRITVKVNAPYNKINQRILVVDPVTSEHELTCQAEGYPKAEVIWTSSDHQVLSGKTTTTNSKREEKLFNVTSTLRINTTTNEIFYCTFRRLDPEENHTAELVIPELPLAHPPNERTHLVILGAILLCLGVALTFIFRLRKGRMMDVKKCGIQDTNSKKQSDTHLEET

## Nc1ncnc2c1ccn2[C@@H]1O[C@@H]2COP(=O)(S)O[C@@H]3[C@H](O)[C@@H](COP(=O)(S)O[C@H]2[C@H]1O)O[C@H]3n1cnc2c(N)ncnc21 (stereo partly drawn) [Compound 8779]
[1]
  radiographic regression in spontaneously arising glioblastomas: induces radiographic regression
QPP8 glioma cells
  therapeutic outcome: curative
QPP8 glioma cells; control MS=103 days
  median survival (MS): undefined

## Nc1ncnc2c1ccn2[C@@H]1O[C@@H]2COP(=O)(S)O[C@@H]3[C@H](O)[C@@H](COP(=O)(S)O[C@H]2[C@H]1O)O[C@H]3n1cnc2c(N)ncnc21 (stereo partly drawn) [Compound C]
[2]; dog, single injection
  radiographic responses in spontaneously arising high-grade gliomas: can produce radiographic responses
[2]; repeated intratumoral injections in 50 uL, canines with unresected gliomas
  MTD: 15 to 20 µg

## Nc1ncnc2c1ncn2[C@@H]1O[C@@H]2COP(O)(=S)O[C@@H]3C(O)[C@@H](COP(O)(=S)O[C@H]2[C@H]1O)O[C@H]3n1cnc2c(N)ncnc21 (stereo partly drawn) [MLRR-S2-CDA, reference compound]
Human U87 glioma cells; both P<0.0001
  survival of U87 tumor-bearing animals: significantly extended survival
Human U87 glioma cells; treated on days 5, 10, and 15, control MS 26.5 days
  median survival (MS): 35 days

## C[C@H](NC(=O)/C(C#N)=C/c1cccc(Br)n1)c1ccccc1 [WP1066, reference compound]
CT-2A glioma cells
  median survival (MS): 28 days
GL261 glioma cells
  median survival (MS): 30 days

B1: Ab-27907: dual functioning PD-L1/PD-L2 monoclonal antibody; Fc point mutations enhance cell-mediated effector functions (antibody, V domains shown)
VH: QVQLVESGGGVIQPGRSLRLSCAASGFTFSAYLMHWVRQAPGKGLEWVAAIGYDGMNKYYADSVKGRFTISRDNSKNTLYLQMNSLRAEDTAVYYCARAGIEYSYAYTDYWGQGTLVTVSS
VL: EIVLTQSPGTLSLSPGERATLSCRASQFVYSSDLAWYQQKPGQAPRLLIYGASARAAGIPDRFSGSGSGTDFTLTISRLEPEDFAVYYCMQFGWWPPRTFGGGTKVEIK
PD-1: PD-L1
  blockade of PD-1: PD-L1: blocks PD-1: PD-L1 as well as pembrolizumab
[3]
  capacity to induce ADCP: robust activity
B16F10-PDL2 tumor
  tumor growth: significantly inhibited tumor growth
[4]
  capacity to induce ADCC: robust activity
TS/A tumor
  survival: significant extended survival
PD-1: PD-L2
  blockade of PD-1: PD-L2: additionally blocks PD-1: PD-L2
